This note sets out measurements from ChEMBL document CHEMBL1126236, “Synthesis and muscarinic receptor activity of ester derivatives of 2-substituted 2-azabicyclo[2.2.1]heptan-5-ol and -6-ol” (J Med Chem, 1992).

Assay [1] deals with Muscarinic acetylcholine receptor. As to the kind of experiment: Inhibition of [3H]- Oxo-M binding to muscarinic receptor of rat brain membrane preparations.
Assay [2] concerns the target T1, Muscarinic acetylcholine receptor M3 (Rattus norvegicus, UniProt P08483). As to the kind of experiment: Inhibition of [3H]QNB binding to Muscarinic acetylcholine receptor M3 transfected with CHO cell. Type of assay: cell-based.
In assay [3] the target is Muscarinic acetylcholine receptor. As to the kind of experiment: Inhibition of [3H]QNB binding to muscarinic receptor of rat heart membrane preparation.
The target is the same in assay [4]. As to the kind of experiment: Inhibition of [3H]QNB binding to muscarinic receptor of rat brain membrane preparation.
In assay [5] the target is T2, Muscarinic acetylcholine receptor M1 (Rattus norvegicus, UniProt P08482).
T2 sequence (P08482 whole entry): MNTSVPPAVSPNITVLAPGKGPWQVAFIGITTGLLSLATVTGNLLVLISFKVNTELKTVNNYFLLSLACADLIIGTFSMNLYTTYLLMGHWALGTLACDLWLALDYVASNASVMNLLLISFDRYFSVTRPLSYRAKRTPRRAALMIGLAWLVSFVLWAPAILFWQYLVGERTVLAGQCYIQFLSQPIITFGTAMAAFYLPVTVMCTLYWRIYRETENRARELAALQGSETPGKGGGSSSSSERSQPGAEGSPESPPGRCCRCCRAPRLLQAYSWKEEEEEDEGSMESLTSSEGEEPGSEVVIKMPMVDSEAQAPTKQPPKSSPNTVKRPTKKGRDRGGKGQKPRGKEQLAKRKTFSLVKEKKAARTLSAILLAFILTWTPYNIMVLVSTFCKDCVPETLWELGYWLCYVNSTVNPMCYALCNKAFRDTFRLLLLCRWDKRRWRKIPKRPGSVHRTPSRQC
As to the kind of experiment: Inhibition of [3H]QNB binding to Muscarinic acetylcholine receptor M1 transfected with CHO cell. Type of assay: cell-based.

Assay [6] addresses T1, Muscarinic acetylcholine receptor M3. As to the kind of experiment: Inhibition of [3H]QNB binding to m3 receptor transfected with CHO cell. The class given is cell-based.

T1 sequence (P08483 whole entry): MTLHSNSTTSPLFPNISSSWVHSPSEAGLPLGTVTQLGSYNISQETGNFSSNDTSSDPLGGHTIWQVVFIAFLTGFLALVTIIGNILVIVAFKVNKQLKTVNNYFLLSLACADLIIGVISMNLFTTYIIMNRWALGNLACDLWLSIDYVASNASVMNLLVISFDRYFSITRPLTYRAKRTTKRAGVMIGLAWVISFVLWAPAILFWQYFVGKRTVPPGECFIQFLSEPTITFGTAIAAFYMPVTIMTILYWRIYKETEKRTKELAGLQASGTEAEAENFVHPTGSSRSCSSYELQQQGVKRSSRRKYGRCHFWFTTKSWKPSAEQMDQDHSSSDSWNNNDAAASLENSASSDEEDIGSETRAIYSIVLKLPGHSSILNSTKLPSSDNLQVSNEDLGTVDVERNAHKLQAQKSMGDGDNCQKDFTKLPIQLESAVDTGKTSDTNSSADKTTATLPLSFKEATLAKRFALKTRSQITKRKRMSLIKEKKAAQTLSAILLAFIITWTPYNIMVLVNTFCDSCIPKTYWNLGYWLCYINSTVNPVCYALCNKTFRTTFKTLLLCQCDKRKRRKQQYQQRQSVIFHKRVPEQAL

As to `CC(=O)O[C@@H]1CC2CC1CN2C` (stereo partly specified), the Ki amounted to 1.43 µM in assay [1]; 27.7 µM in assay [2]; 17.4 µM in assay [3]; 11.5 µM in assay [4]; 21.9 µM in assay [5].
For the compound `CC(=O)O[C@H]1CC2CC1N(Cc1ccccc1)C2` (stereo partly specified), the Ki in assay [1] was found to be 7.21 µM; in assay [6] it was 18.8 µM; in assay [3], 15.1 µM; in assay [4], 6.63 µM; in assay [5], 7.01 µM.
On to `CN1CC2CC1C[C@H]2OC(=O)C(C)(c1ccccc1)c1ccccc1` (stereo partly specified), for which the values for the Ki in assay [2], in assay [3] and in assay [5] were 0.000522 µM, 0.00118 µM and 0.000423 µM, respectively.
On to `CC(=O)O[C@H]1CC2CC1CN2C` (stereo partly specified), for which the Ki in assay [1] amounted to 0.23 µM; in assay [2] it was 12 µM; in assay [3], 10.1 µM; in assay [4], 9.84 µM; in assay [5], 17.5 µM.
As for `CC(=O)O[C@@H]1CC2CC1N(Cc1ccccc1)C2` (stereo partly specified), the inhibition constant Ki in assay [1] is 2.57 µM; in assay [2], 47.6 µM; in assay [3], 15.3 µM; in assay [4], 20 µM; in assay [5], 2.26 µM.
As for `CN1CC2CC1C[C@@H]2OC(=O)C(C)(c1ccccc1)c1ccccc1` (stereo partly specified), the Ki in assay [2] amounted to 0.000533 µM; in assay [3], 0.00407 µM; in assay [5], 0.000876 µM.
`CC(=O)OC1CC2CC1N(C)C2` (stereo unspecified): the Ki in assay [1] came to 5.37 µM; in assay [2], 28 µM; in assay [3], 24.9 µM; in assay [4], 17.5 µM; in assay [5] it was 21.6 µM.
`CC(=O)OC1CC2CC1CN2Cc1ccccc1` (stereo unspecified): the Ki in assay [1] is 1.56 µM; in assay [2], 26.9 µM; in assay [3] it was 10.3 µM; in assay [4] it was 14.8 µM; in assay [5] it was 18.9 µM.
